Measured values: ChEMBL document CHEMBL1201861, “Genomics of Drug Sensitity in Cancer screening data, Wellcome Trust Sanger Institute”

Assays:
Assay in all cases: cells
BB65-RCC = format: functional, cell-based, Homo sapiens; conditions: Homo sapiens, BB65-RCC;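 further: growth inhibition of the cell line, measured with a cell viability assay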
Description: SANGER: Inhibition of human BB65-RCC cell growth in a cell viability assay.

NEC8 = format: functional, cell-based, Homo sapiens; conditions: Homo sapiens, NEC8;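 further: growth inhibition of human NEC8 cells, read out by a cell viability assay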
Description: SANGER: Inhibition of human NEC8 cell growth in a cell viability assay.

CW-2 = format: functional, cell-based, Homo sapiens; conditions: Homo sapiens, CW-2;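 further: growth inhibition of CW-2 cells, read out by a cell viability assay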
Description: SANGER: Inhibition of human CW-2 cell growth in a cell viability assay.

SW684 = format: functional, cell-based, Homo sapiens; conditions: Homo sapiens, SW684;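 further: growth inhibition of human SW684 cells, measured by a cell viability assay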
Description: SANGER: Inhibition of human SW684 cell growth in a cell viability assay.

MV4-11 = format: functional, cell-based, Homo sapiens, MV-4-11; conditions: Homo sapiens, MV4-11;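 further: cell viability readout measuring growth inhibition of human MV-4-11 cells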
Description: SANGER: Inhibition of human MV-4-11 cell growth in a cell viability assay.

ES6 = format: functional, cell-based, Homo sapiens; conditions: Homo sapiens, ES6;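 further: growth inhibition of human ES6 cells, read out with a cell viability assay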
Description: SANGER: Inhibition of human ES6 cell growth in a cell viability assay.

MZ1-PC = format: functional, cell-based, Homo sapiens; conditions: Homo sapiens, MZ1-PC;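 further: cell viability assay measuring growth inhibition of human MZ1-PC cells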
Description: SANGER: Inhibition of human MZ1-PC cell growth in a cell viability assay.

no-10 = format: functional, cell-based, Homo sapiens; conditions: Homo sapiens;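 further: growth inhibition of no-10 cells, read out with a cell viability assay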
Description: SANGER: Inhibition of human no-10 cell growth in a cell viability assay.

KM12 = format: functional, cell-based, Homo sapiens; conditions: Homo sapiens, KM12;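 further: KM12 cell growth inhibition, read out with a cell viability assay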
Description: SANGER: Inhibition of human KM12 cell growth in a cell viability assay.

8-MG-BA = format: functional, cell-based, Homo sapiens; conditions: Homo sapiens, 8-MG-BA;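 further: growth inhibition of 8-MG-BA cells, read out with a cell viability assay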
Description: SANGER: Inhibition of human 8-MG-BA cell growth in a cell viability assay.

IST-MEL1 = format: functional, cell-based, Homo sapiens; conditions: Homo sapiens, IST-MEL1;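 further: growth inhibition of the cell line, read out with a cell viability assay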
Description: SANGER: Inhibition of human IST-MEL1 cell growth in a cell viability assay.

DB = format: functional, cell-based, Homo sapiens; conditions: Homo sapiens, DB
Description: SANGER: Inhibition of human DB cell growth in a cell viability assay.

RKO = format: functional, cell-based, Homo sapiens; conditions: Homo sapiens, RKO;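 further: growth inhibition of human RKO cells, read out with a cell viability assay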
Description: SANGER: Inhibition of human RKO cell growth in a cell viability assay.

NOMO-1 = format: functional, cell-based, Homo sapiens; conditions: Homo sapiens, NOMO-1;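 further: growth inhibition of human NOMO-1 cells measured by a cell viability assay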
Description: SANGER: Inhibition of human NOMO-1 cell growth in a cell viability assay.

EKVX = format: functional, cell-based, Homo sapiens; conditions: Homo sapiens, EKVX;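 further: growth inhibition of human EKVX cells, read out with a cell viability assay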
Description: SANGER: Inhibition of human EKVX cell growth in a cell viability assay.

CTV-1 = format: functional, cell-based, Homo sapiens; conditions: Homo sapiens, CTV-1;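 further: growth inhibition of the cell line, read out with a cell viability assay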
Description: SANGER: Inhibition of human CTV-1 cell growth in a cell viability assay.

KY821 = format: functional, cell-based, Homo sapiens; conditions: Homo sapiens, KY821;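 further: growth inhibition of human KY821 cells, read out by a cell viability assay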
Description: SANGER: Inhibition of human KY821 cell growth in a cell viability assay.

TE-12 = format: functional, cell-based, Homo sapiens; conditions: Homo sapiens, TE-12;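 further: growth inhibition of TE-12 cells, read out by a cell viability assay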
Description: SANGER: Inhibition of human TE-12 cell growth in a cell viability assay.

COLO-668 = format: functional, cell-based, Homo sapiens; conditions: Homo sapiens, COLO-668
Description: SANGER: Inhibition of human COLO-668 cell growth in a cell viability assay.

DOHH-2 = format: functional, cell-based, Homo sapiens; conditions: Homo sapiens, DOHH-2;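 further: growth inhibition of human DOHH-2 cells, read out with a cell viability assay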
Description: SANGER: Inhibition of human DOHH-2 cell growth in a cell viability assay.

NB5 = format: functional, cell-based, Homo sapiens; conditions: Homo sapiens, NB5;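 further: growth inhibition of NB5 cells, read out as cell viability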
Description: SANGER: Inhibition of human NB5 cell growth in a cell viability assay.

MHH-PREB-1 = format: functional, cell-based, Homo sapiens; conditions: Homo sapiens, MHH-PREB-1;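 further: cell viability assay measuring inhibition of proliferation of human MHH-PREB-1 cells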
Description: SANGER: Inhibition of human MHH-PREB-1 cell growth in a cell viability assay.

MS-1 = format: functional, cell-based, Homo sapiens; conditions: Homo sapiens, MS-1;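 further: growth inhibition of MS-1 cells, read out by cell viability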
Description: SANGER: Inhibition of human MS-1 cell growth in a cell viability assay.

BT-474 = format: functional, cell-based, Homo sapiens; conditions: Homo sapiens, BT-474
Description: SANGER: Inhibition of human BT-474 cell growth in a cell viability assay.

TGW = format: functional, cell-based, Homo sapiens; conditions: Homo sapiens, TGW;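 further: growth inhibition of human TGW cells, read out with a cell viability assay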
Description: SANGER: Inhibition of human TGW cell growth in a cell viability assay.

OMC-1 = format: functional, cell-based, Homo sapiens; conditions: Homo sapiens, OMC-1;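 further: growth inhibition of the OMC-1 cell line, measured by a cell viability assay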
Description: SANGER: Inhibition of human OMC-1 cell growth in a cell viability assay.

EW-18 = format: functional, cell-based, Homo sapiens; conditions: Homo sapiens, EW-18;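 further: growth inhibition of EW-18 cells, read out by a cell viability assay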
Description: SANGER: Inhibition of human EW-18 cell growth in a cell viability assay.

KGN = format: functional, cell-based, Homo sapiens; conditions: Homo sapiens, KGN;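 further: growth inhibition of KGN cells, read out with a cell viability assay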
Description: SANGER: Inhibition of human KGN cell growth in a cell viability assay.

NKM-1 = format: functional, cell-based, Homo sapiens; conditions: Homo sapiens, NKM-1;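 further: growth inhibition of NKM-1 cells, read out with a cell viability assay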
Description: SANGER: Inhibition of human NKM-1 cell growth in a cell viability assay.

LB2241-RCC = format: functional, cell-based, Homo sapiens; conditions: Homo sapiens, LB2241-RCC;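 further: cell viability assay measuring how strongly the cultured human renal carcinoma line is prevented from growing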
Description: SANGER: Inhibition of human LB2241-RCC cell growth in a cell viability assay.

MOLT-4 = format: functional, cell-based, Homo sapiens; conditions: Homo sapiens, MOLT-4;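 further: growth inhibition of MOLT-4 cells, determined with a cell viability readout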
Description: SANGER: Inhibition of human MOLT-4 cell growth in a cell viability assay.

ETK-1 = format: functional, cell-based, Homo sapiens; conditions: Homo sapiens, ETK-1;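 further: growth inhibition of human ETK-1 cells, read out with a cell viability assay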
Description: SANGER: Inhibition of human ETK-1 cell growth in a cell viability assay.

NB6 = format: functional, cell-based, Homo sapiens; conditions: Homo sapiens, NB6;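 further: growth inhibition of NB6 cells, read out by a cell viability assay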
Description: SANGER: Inhibition of human NB6 cell growth in a cell viability assay.

Lu-65 = format: functional, cell-based, Homo sapiens; conditions: Homo sapiens, Lu-65;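 further: growth inhibition of Lu-65 cancer cells, read out by a cell viability assay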
Description: SANGER: Inhibition of human LU-65 cell growth in a cell viability assay.

NCI-H1155 = format: functional, cell-based, Homo sapiens; conditions: Homo sapiens, NCI-H1155;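 further: cell growth inhibition measured by a viability assay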
Description: SANGER: Inhibition of human NCI-H1155 cell growth in a cell viability assay.

KNS-42 = format: functional, cell-based, Homo sapiens; conditions: Homo sapiens, KNS-42;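 further: growth inhibition of KNS-42 cells, read out with a cell viability assay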
Description: SANGER: Inhibition of human KNS-42 cell growth in a cell viability assay.

RXF 393 = format: functional, cell-based, Homo sapiens; conditions: Homo sapiens, RXF 393;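 further: growth inhibition of human RXF 393 cells, read out with a cell viability assay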
Description: SANGER: Inhibition of human RXF393 cell growth in a cell viability assay.

MN-60 = format: functional, cell-based, Homo sapiens; conditions: Homo sapiens, MN-60;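 further: growth inhibition of the MN-60 cell line, determined with a cell viability assay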
Description: SANGER: Inhibition of human MN-60 cell growth in a cell viability assay.

SK-N-FI = format: functional, cell-based, Homo sapiens; conditions: Homo sapiens, SK-N-FI;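 further: cell viability assay measuring growth inhibition of human SK-N-FI cells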
Description: SANGER: Inhibition of human SK-N-FI cell growth in a cell viability assay.

GCIY = format: functional, cell-based, Homo sapiens; conditions: Homo sapiens, GCIY;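 further: growth inhibition of the human GCIY cell line, read out by a cell viability assay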
Description: SANGER: Inhibition of human GCIY cell growth in a cell viability assay.

JVM-3 = format: functional, cell-based, Homo sapiens; conditions: Homo sapiens, JVM-3;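 further: growth inhibition of human JVM-3 cells, read out with a cell viability assay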
Description: SANGER: Inhibition of human JVM-3 cell growth in a cell viability assay.

CP66-MEL = format: functional, cell-based, Homo sapiens; conditions: Homo sapiens, CP66-MEL;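 further: growth inhibition of CP66-MEL cells determined in a cell viability assay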
Description: SANGER: Inhibition of human CP66-MEL cell growth in a cell viability assay.

SF-268 = format: functional, cell-based, Homo sapiens; conditions: Homo sapiens, SF-268;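 further: growth inhibition of SF-268 cells determined with a cell viability assay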
Description: SANGER: Inhibition of human SF268 cell growth in a cell viability assay.

NCI-H1092 = format: functional, cell-based, Homo sapiens; conditions: Homo sapiens, NCI-H1092;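 further: cell growth inhibition measured with a cell viability assay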
Description: SANGER: Inhibition of human NCI-H1092 cell growth in a cell viability assay.

MEG-01 = format: functional, cell-based, Homo sapiens; conditions: Homo sapiens, MEG-01;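 further: growth inhibition of MEG-01 cells, read out by a cell viability assay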
Description: SANGER: Inhibition of human MEG-01 cell growth in a cell viability assay.

HuTu80 = format: functional, cell-based, Homo sapiens, HUTU-80; conditions: Homo sapiens, HuTu80;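 further: growth inhibition of HuTu80 human cells, determined with a cell viability readout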
Description: SANGER: Inhibition of human HUTU-80 cell growth in a cell viability assay.

HT-144 = format: functional, cell-based, Homo sapiens; conditions: Homo sapiens, HT-144
Description: SANGER: Inhibition of human HT-144 cell growth in a cell viability assay.

EOL1 = format: functional, cell-based, Homo sapiens; conditions: Homo sapiens, EOL1;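 further: growth inhibition of EoL-1 cells, read out by a cell viability assay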
Description: SANGER: Inhibition of human EoL-1-cell cell growth in a cell viability assay.

Measured: IC50

COc1cc2ncn(-c3cc(OCc4ccccc4S(C)(=O)=O)c(C#N)s3)c2cc1OC [GSK-319347A]
> 5 µM: BB65-RCC | NEC8 | CW-2 | SW684 | MV4-11 | ES6 | MZ1-PC | no-10 | KM12 | 8-MG-BA | IST-MEL1 | DB | RKO | NOMO-1 | EKVX | CTV-1 | KY821 | TE-12 | COLO-668 | DOHH-2 | NB5 | MHH-PREB-1 | MS-1 | BT-474 | TGW | OMC-1 | EW-18 | KGN | NKM-1 | LB2241-RCC | MOLT-4 | ETK-1 | NB6 | Lu-65 | NCI-H1155 | KNS-42 | RXF 393 | MN-60 | SK-N-FI | GCIY | JVM-3 | CP66-MEL | SF-268 | NCI-H1092 | MEG-01 | HuTu80 | HT-144 | EOL1
